Paper PMC13338763, “Harnessing albumin as a carrier for the delivery of anti-HIV drugs to the lymphatic system” (Acta biomaterialia, 2025)
Values after ≈ are worked out from the molar mass of the structure shown.

What was measured:
[1] = system: HEK293T cells; assay: Cellular uptake study in vitro (flow cytometry); type: cell-based; conditions: in words
Experimental: HEK293T or HUVEC cells were seeded to 6-well plates. After overnight incubation, the culture medium was replaced by fresh medium containing 10 μM EB and 2, 5, or 20 mg/mL BSA for incubation of 0.5, 1 or 3 h at 37 °C. Later, cells were washed with cold PBS and fixed with PBS containing 4 % (w/v) formaldehyde.
Cellular uptake of different treatments was quantified by flow cytometry. Fluorescence was examined at an excitation wavelength of 532 nm and an emission wavelength of 660 nm. 10 × 10^4 events were collected for each sample.

[2] = Aqueous solubility; type: physicochemical; conditions: water
[3] = Distribution in LN tissue and cells in LNs after i.v. injection (fluorescence microscopy, flow cytometry); type: in vivo; conditions: in words
Experimental: Five (5) μM/kg EB, hEB or hEB-DTG were i.v. injected into mice pretreated intraperitoneally with or without 2.5 mg/kg LPS for 24 h. After 24 h, LNs from different sites were collected and their signals of EB were checked under fluorescent microscopy. To evaluate the EB signals in various types of cells, LNs were disrupted mechanically using scissors, digested with a mixture of deoxyribonuclease I (0.3 mg/mL, Sigma-Aldrich) and TL Liberase (0.25 mg/mL, Roche, IN, USA) in serum-free RPMI-1640 at 37 °C for 30 min, and dispersed through a 40 μm cell strainer (BD Biosciences, CA, USA). After red blood cell lysis, live/dead cell discrimination was performed using a Zombie NIR Fixable Viability Kit (BioLegend, CA, USA, dilution: 1/1000) at 4 °C for 30 min in DPBS. Surface staining was performed at 4 °C for 30 min in FACS staining buffer (1 × phosphate-buffered saline/5 % FBS/0.5 % sodium azide) containing designated antibody cocktails (PerCP anti-mouse CD45 antibody, Brilliant Violet 785 anti-mouse CD4 antibody, FITC anti-mouse CD8 antibody, APC anti-mouse CD11b antibody, APC/Cyanine7 anti-mouse F4/80 antibody, Pacific Blue anti-mouse CD19 antibody and AF647 anti-mouse CD27 antibody; dilution: 1/200 for all antibodies). Flow cytometry was performed with LSRII (BD Biosciences) and Aurora (Cytek Biosciences, CA, USA) instruments and analyzed by FlowJo (BD Biosciences). The EB signals in each type of cell were quantified as mentioned above.

[4] = system: TZM-bl cells; assay: Cell viability assay (CellTiter-Glo 2.0); type: cell-based; conditions: 48 h
Experimental: DTG and hEB-DTG prodrug cytotoxicity was measured at different concentrations against TZM-bl reporter cell line in the presence or absence of HIV-WT virus using the CellTiter-Glo™ 2.0 Assay (Promega, WI, USA) according to the manufacturer’s protocol. TZM-bl cells were seeded in the 96-well white plate at a density of 1 × 10^4 cells/well, and after 24 h, the cells were infected with HIV-WT virus and treated with DTG and hEB-DTG in a concentration range (diluted 1:100) from 3 × 10^−1 mg/mL to 3 × 10^−15 mg/mL. After 48 h, cells were subjected to CellTiter-Glo™ 2.0 Assay (Promega). The CellTiter-Glo™ 2.0 Reagent was equilibrated to room temperature and gently mixed. 100 μL of CellTiter-Glo™ 2.0 Reagent was added to each well containing 100 μL of cells in the medium. Contents were shaken in an orbital shaker for 2 min and incubated at room temperature for precisely 10 min, and then luminescence was measured with a Varioskan LUX Multimode Microplate Reader. Untreated/infected cells were used as a baseline control. Viability of cells was presented as a percentage of OD values of the control cells. For each assay run, data points were collected in triplicate.

[5] = PK study: DTG in serum by HPLC-MS; type: in vivo, mice
Experimental: Five (5) mg/kg DTG, or hEB-DTG containing equivalent amount of DTG were i.v. injected into mice. After 1, 4, 12, 24 or 48 h, serum and LNs were collected. Samples were homogenized and vortex in 1 mL mixture of water and methanol (1/1, v/v), and then another 1 mL mixture of methanol and acetonitrile (1/1, v/v) was added for extraction. After centrifugation at 12,500 g for 10 min, the supernatants were collected for measurement under HPLC-MS with a previously reported method. For hydrolysis of the ester bond in hEB-DTG to release free DTG, the biological samples suspension mentioned above were incubated in 300 mg/mL guanidine hydrochloride solution at 80 °C for 24 h before extraction.

[6] = biological target: BSA (Bos taurus, UniProt P02769); assay: Gel retardation study with BSA; type: binding, bovine; conditions: in words
BSA, sequence (P02769 25-607): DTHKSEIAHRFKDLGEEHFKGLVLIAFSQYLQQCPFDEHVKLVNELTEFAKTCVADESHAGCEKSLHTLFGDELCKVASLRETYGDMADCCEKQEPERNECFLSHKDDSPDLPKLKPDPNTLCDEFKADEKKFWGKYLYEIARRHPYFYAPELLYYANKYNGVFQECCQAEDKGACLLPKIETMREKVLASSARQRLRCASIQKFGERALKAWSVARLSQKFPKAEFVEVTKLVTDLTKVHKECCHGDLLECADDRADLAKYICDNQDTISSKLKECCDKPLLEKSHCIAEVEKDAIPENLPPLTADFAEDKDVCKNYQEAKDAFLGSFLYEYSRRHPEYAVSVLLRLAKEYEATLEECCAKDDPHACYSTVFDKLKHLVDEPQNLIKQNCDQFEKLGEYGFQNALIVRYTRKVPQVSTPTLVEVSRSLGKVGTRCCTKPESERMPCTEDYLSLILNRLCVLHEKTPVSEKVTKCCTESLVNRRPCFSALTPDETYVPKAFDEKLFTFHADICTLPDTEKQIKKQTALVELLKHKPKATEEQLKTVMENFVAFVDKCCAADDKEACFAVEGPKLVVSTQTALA
Experimental: Twenty (20) μg EB, hEB, hEB-platin, or hEB-DTG were mixed with or without various amounts of BSA, globulin, fibrinogen or FBS in 200 μL saline water, then 40 μL of the mixed solution were loaded to 1.5 % agarose gel and run under 120 V for 30 min.

[7] = Release of DTG from hEB-DTG (storage stability and in vitro release kinetics, HPLC-MS); type: physicochemical; conditions: for DTG released (cumulative): PBS
[8] = system: HUVEC monolayer; assay: Transwell study: transport across a HUVEC monolayer, flow cytometry of HEK293T cells in lower chamber; type: cell-based; conditions: albumin-bound, 8 h, in words
Experimental: HEK293T were seeded to 6-well plates as lower chamber and HUVEC were seeded to Corning (NY, USA) 6-well plate inserts (0.4 μm pore size) in another plate as upper chamber, respectively. After incubation and the cell layer on the upper chamber became intact, the culture medium in the inserts was replaced by fresh medium containing 0, 5 or 20 μg/mL filipin and 0 or 10 μg/mL LPS for overnight incubation. Next, the culture medium in the inserts was replaced with fresh medium containing 10 μM EB, hEB or hEB-DTG and 2 mg/mL BSA, then the inserts were moved to the wells cultured with HEK293T cells for incubation of 8 h at 37 °C. After that, HEK293T cells in the lower chambers were washed with cold PBS.
EB signals in HEK293T cells were quantified by flow cytometry. Fluorescence was examined at an excitation wavelength of 532 nm and an emission wavelength of 660 nm. 10 × 10^4 events were collected for each sample.

[9] = system: HIV-WT virus; assay: Drug susceptibility assay (luciferase reporter in TZM-bl cells); type: cell-based, human immunodeficiency virus; conditions: TZM-bl cells infected with HIV-WT, 48 h
Experimental: DTG and hEB-DTG luciferase expression levels were measured at different concentrations against TZM-bl reporter cell line in the presence of HIV-WT virus using the Britelite Plus Ultra-High Sensitivity Luminescence Reporter Gene Assay System (Revvity, MA, USA) according to the manufacturer’s protocol. TZM-bl cells were seeded in clear bottom white 96-well plate in a total volume of 200 μl DMEM-10 complete (+ 10 % FBS + 1 % penicillin/streptomycin) at a density of 1 × 10^4 cells/well. After 24 h, the cells were infected with the HIV-WT virus and treated with DTG and hEB-DTG in a concentration range (serial diluted 1:100) from 3 × 10^−1 mg/mL to 3 × 10^−15 mg/mL in PRF-10 complete media (+10 % FBS + 1 % penicillin/streptomycin). After 48 h of incubation, the cells were subjected to Britelite Plus Ultra-High Sensitivity Luminescence Reporter Gene Assay System (Revvity). The Britelite plus Lyophilized Substrate was reconstituted with the given Britelite Plus Reconstitution Buffer. After gently inverting and settling the solution for 5 min, 100 μL of the reconstituted Britelite Substrate solution was added to each well containing 100 μL of cells in the medium. Luminescence was measured with a Varioskan LUX Multimode Microplate Reader precisely after 2 min. Untreated/infected cells were used as baseline control. The inhibitory concentrations of each drug were presented as a percentage of OD value of the control cells. For each assay run, data points were collected in triplicate.

SMILES | cellular uptake [1] | solubility [2] | fluorescence signal in LNs ([3]; 24 h post i.v. injection) | uptake by immune cell populations in LNs ([3]; flow cytometry) | concentrations above which cell viability began to decline [4] | concentrations with minimal cytotoxicity [4] | released DTG concentration in blood vs free DTG group ([5]; 1 h post-injection) | binding affinity for BSA [6] | DTG released (cumulative) ([7]; 37 °C, over 96 h) | DTG released (cumulative) ([7]; 37 °C, within 24 h) | DTG release in serum compared with PBS ([7]; 37 °C, serum) | DTG released ([7]; over 30 days at room temperature, storage conditions) | transport across endothelial cell monolayer [8] | antiviral potency relative to free DTG [9] | concentrations that potently inhibited HIV-WT replication [9] | clearance ([5]; mouse, serum, iv, single i.v. injection of free DTG 5 mg/kg, one-compartment model, read-out: CL, free DTG in serum (converted)) | half-life ([5]; mouse, serum, iv, single i.v. injection of free DTG 5 mg/kg, one-compartment model, read-out: t1/2, free DTG in serum (converted))
Cc1cc(-c2ccc(NCC(=O)Oc3c4n(cc(C(=O)NCc5ccc(F)cc5F)c3=O)C[C@@H]3OCC[C@@H](C)N3C4=O)c(C)c2)ccc1/N=N/c1ccc2c(S(=O)(=O)O)cc(S(=O)(=O)O)c(N)c2c1O [hEB-DTG] | efficiently internalized | 9640 µg/mL (≈ 9.62 mM) | comparable to that of hEB alone | significant EB signals were detected in all cell types analyzed | exceeded 1 μg/mL | below 100 ng/mL | slightly higher | maintained strong binding ability | ~ 60% | ~ 30% | slower | 0.83% | successfully transported | slightly less potent | ≥ 10 ng/mL | – | –
C[C@@H]1CCO[C@H]2Cn3cc(C(=O)NCc4ccc(F)cc4F)c(=O)c(O)c3C(=O)N12 [DTG, dolutegravir] | – | 40 µg/mL (≈ 0.0954 mM) | – | – | exceeded 1 μg/mL | below 100 ng/mL | – | – | – | – | – | – | – | – | ≥ 10 ng/mL | 0.00411 mL/min | 3.61 h
Cc1cc(-c2ccc(/N=N/c3ccc4c(S(=O)(=O)O)cc(S(=O)(=O)O)c(N)c4c3O)c(C)c2)ccc1N [hEB, half-truncated Evans Blue] | – | – | – | – | – | – | – | retained strong binding affinity | – | – | – | – | – | – | – | – | –
